Read-outs that look alike come from different tables or passages of the source.
Assays:
[1] = tested on: AsPC-1 (K-Ras G12D); test: Potency assay: pERK; type: cell-based, human; details: Homo sapiens
Procedure: The purpose of this assay is to measure the ability of test compounds to inhibit K-Ras in cells. […] This procedure measures a decrease in cellular pERK in response to test compounds. The procedure described below in NCI-H358 cells is applicable to K-Ras G12C.
NCI-H358 cells were grown and maintained using media and procedures recommended by the ATCC. On the day prior to compound addition, cells were plated in 384-well cell culture plates (40 μl/well) and grown overnight in a 37° C., 5% CO2 incubator. Test compounds were prepared in 10, 3-fold dilutions in DMSO, with a high concentration of 10 mM. On the day of assay, 40 nL of test compound was added to each well of cell culture plate using an Echo550 liquid handler (LabCyte®). Concentrations of test compound were tested in duplicate. After compound addition, cells were incubated 4 hours at 37° C., 5% CO2. Following incubation, culture medium was removed and cells were washed once with phosphate buffered saline.
In some experiments, cellular pERK level was determined using the AlphaLISA SureFire Ultra p-ERK1/2 Assay Kit (PerkinElmer). Cells were lysed in 25 μL lysis buffer, with shaking at 600 RPM at room temperature. Lysate (10 μL) was transferred to a 384-well Opti-plate (PerkinElmer) and 5 μL acceptor mix was added. After a 2-hour incubation in the dark, 5 μL donor mix was added, plate was sealed, and incubated 2 hours at room temperature. Signal was read on an Envision plate reader (PerkinElmer) using standard AlphaLISA settings. Analysis of raw data was carried out in Excel (Microsoft) and Prism (GraphPad). Signal was plotted vs. the decadal logarithm of compound concentration, and IC50 was determined by fitting a 4-parameter sigmoidal concentration response model.
In other experiments, cellular pERK was determined by In-Cell Western. Following compound treatment, cells were washed twice with 200 μL tris buffered saline (TBS) and fixed for 15 minutes with 150 μL 4% paraformaldehyde in TBS. Fixed cells were washed 4 times for 5 minutes with TBS containing 0.1% Triton X-100 (TBST) and then blocked with 100 μL Odyssey blocking buffer (LI-COR) for 60 minutes at room temperature. Primary antibody (PERK, CST-4370, Cell Signaling Technology) was diluted 1:200 in blocking buffer, and 50 μL was added to each well and incubated overnight at 4° C. Cells were washed 4 times for 5 minutes with TBST. Secondary antibody (IR-800CW rabbit, LI-COR, diluted 1:800) and DNA stain DRAQ5 (LI-COR, diluted 1:2000) were added and incubated 1-2 hours at room temperature. Cells were washed 4 times for 5 minutes with TBST. Plates were scanned on a Li—COR Odyssey CLx Imager. Analysis of raw data was carried out in Excel (Microsoft) and Prism (GraphPad). Signal was plotted vs. the decadal logarithm of compound concentration, and IC50 was determined by fitting a 4-parameter sigmoidal concentration response model.

[2] = target: KRAS G12S (Homo sapiens (Human), UniProt P01116+P62937, G12S); test: Ras-Raf disruption/FRET/MOA assay (BRAF RBD, Cyclophilin A); type: biochemical; details: read-out: KRAS G12S FRET IC50
KRAS G12S, sequence (P01116 other isoform, or with tags, fused parts or gaps G12S): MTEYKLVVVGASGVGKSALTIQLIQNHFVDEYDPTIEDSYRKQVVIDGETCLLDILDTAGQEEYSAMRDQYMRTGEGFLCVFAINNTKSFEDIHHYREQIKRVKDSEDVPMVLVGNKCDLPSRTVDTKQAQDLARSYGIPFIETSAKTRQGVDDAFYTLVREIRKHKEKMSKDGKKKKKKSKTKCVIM
KRAS G12S, sequence (P62937 whole entry): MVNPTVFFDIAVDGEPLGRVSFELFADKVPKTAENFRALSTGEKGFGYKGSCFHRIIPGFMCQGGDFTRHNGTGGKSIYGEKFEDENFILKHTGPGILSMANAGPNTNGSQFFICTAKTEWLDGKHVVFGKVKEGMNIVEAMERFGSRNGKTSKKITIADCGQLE
In short: (§1)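 Ras-GMPPNP (12.5 nM), BRAF RBD (50 nM) and 25 μM Cyclophilin A were incubated with compound for 3 h at 25° C, then detected 1.5 h with anti-His Eu and anti-GST APC; IC50 values follow from the reduced TR-FRET ratio.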

[3] = target: NRAS Q61R (Homo sapiens (Human), UniProt P01111+P62937, Q61R); test: as above; type: biochemical
NRAS Q61R, sequence (P01111 whole entry Q61R): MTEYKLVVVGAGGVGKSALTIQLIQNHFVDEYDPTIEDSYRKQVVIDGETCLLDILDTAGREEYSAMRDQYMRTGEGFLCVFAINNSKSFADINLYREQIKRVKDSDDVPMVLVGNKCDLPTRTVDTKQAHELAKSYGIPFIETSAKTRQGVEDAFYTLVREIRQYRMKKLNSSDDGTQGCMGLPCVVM
NRAS Q61R, sequence (P62937 whole entry): as the sequence (P62937 whole entry) above
In short: (§2)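 First, 25 μM Cyclophilin A, 12.5 nM His6-Ras-GMPPNP and 50 nM GST-BRAF RBD are mixed with diluted compound at pH 7.3. Next, 3 h at 25° C. Then 10 nM anti-His Eu-W1024 plus 50 nM anti-GST allophycocyanin for 1.5 h before TR-FRET reading.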

[4] = target: NRAS G12C (Homo sapiens (Human), UniProt P01111+P62937, G12C); test: as above; type: biochemical; details: read-out: NRAS G12C FRET data IC50
NRAS G12C, sequence (P01111 whole entry G12C): as the sequence (P01111 whole entry Q61R) above, with G12C, R61Q counted along it
NRAS G12C, sequence (P62937 whole entry): as the sequence (P62937 whole entry) above
In short: as §2

[5] = target: KRAS G12D (Homo sapiens (Human), UniProt P01116+P62937, G12D); test: as above; type: biochemical; details: read-out: KRAS G12D FRET IC50
KRAS G12D, sequence (P01116 other isoform, or with tags, fused parts or gaps G12D): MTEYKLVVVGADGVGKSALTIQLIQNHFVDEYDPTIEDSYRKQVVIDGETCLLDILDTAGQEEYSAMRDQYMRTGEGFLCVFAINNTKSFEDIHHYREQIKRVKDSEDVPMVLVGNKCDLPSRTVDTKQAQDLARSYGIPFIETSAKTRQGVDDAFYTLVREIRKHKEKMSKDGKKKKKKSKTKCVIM
KRAS G12D, sequence (P62937 whole entry): as the sequence (P62937 whole entry) above
In short: as §1

[6] = target: KRAS Q61H (Homo sapiens (Human), UniProt P01116+P62937, Q61H); test: as above; type: biochemical
KRAS Q61H, sequence (P01116 other isoform, or with tags, fused parts or gaps Q61H): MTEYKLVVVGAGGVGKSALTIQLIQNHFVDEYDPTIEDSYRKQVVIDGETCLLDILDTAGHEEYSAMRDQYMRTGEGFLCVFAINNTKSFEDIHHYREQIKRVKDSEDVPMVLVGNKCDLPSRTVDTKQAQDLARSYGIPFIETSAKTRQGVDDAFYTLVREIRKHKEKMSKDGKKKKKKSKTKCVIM
KRAS Q61H, sequence (P62937 whole entry): as the sequence (P62937 whole entry) above
In short: as §1

[7] = target: KRAS G13D (Homo sapiens (Human), UniProt P01116+P62937, G13D); test: as above; type: biochemical; details: read-out: KRAS G13D FRET data IC50
KRAS G13D, sequence (P01116 other isoform, or with tags, fused parts or gaps G13D): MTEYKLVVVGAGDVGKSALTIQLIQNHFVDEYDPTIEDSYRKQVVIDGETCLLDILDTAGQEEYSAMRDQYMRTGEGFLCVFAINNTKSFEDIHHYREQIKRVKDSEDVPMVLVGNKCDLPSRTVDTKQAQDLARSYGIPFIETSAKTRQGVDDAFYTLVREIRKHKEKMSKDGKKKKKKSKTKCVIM
KRAS G13D, sequence (P62937 whole entry): as the sequence (P62937 whole entry) above
In short: as §1

[8] = target: NRAS WT (Homo sapiens (Human), UniProt P01111+P62937); test: as above; type: biochemical
NRAS WT, sequence (P01111 whole entry): as the sequence (P01111 whole entry Q61R) above, with R61Q counted along it
NRAS WT, sequence (P62937 whole entry): as the sequence (P62937 whole entry) above
In short: as §2

[9] = target: KRAS G12V (Homo sapiens (Human), UniProt P01116+P62937, G12V); test: as above; type: biochemical; details: read-out: KRAS G12V FRET IC50
KRAS G12V, sequence (P01116 other isoform, or with tags, fused parts or gaps G12V): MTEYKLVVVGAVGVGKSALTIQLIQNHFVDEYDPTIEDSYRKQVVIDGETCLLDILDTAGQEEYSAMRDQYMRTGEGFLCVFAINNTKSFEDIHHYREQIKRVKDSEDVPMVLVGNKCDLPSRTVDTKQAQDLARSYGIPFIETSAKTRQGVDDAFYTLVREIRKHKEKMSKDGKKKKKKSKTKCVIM
KRAS G12V, sequence (P62937 whole entry): as the sequence (P62937 whole entry) above
In short: as §1

[10] = target: KRAS G13C (Homo sapiens (Human), UniProt P01116+P62937, G13C); test: as above; type: biochemical; details: read-out: KRAS G13C FRET IC50
KRAS G13C, sequence (P01116 other isoform, or with tags, fused parts or gaps G13C): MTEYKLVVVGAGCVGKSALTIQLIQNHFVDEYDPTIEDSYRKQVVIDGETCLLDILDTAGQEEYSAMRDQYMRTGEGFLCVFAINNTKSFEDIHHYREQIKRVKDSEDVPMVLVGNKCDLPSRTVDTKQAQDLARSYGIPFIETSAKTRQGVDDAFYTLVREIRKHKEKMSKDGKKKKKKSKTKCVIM
KRAS G13C, sequence (P62937 whole entry): as the sequence (P62937 whole entry) above
In short: as §1

[11] = target: KRAS G12C (Homo sapiens (Human), UniProt P01116+P62937, G12C); test: as above; type: biochemical; details: read-out: KRAS G12C FRET IC50
KRAS G12C, sequence (P01116-2 other isoform, or with tags, fused parts or gaps G12C): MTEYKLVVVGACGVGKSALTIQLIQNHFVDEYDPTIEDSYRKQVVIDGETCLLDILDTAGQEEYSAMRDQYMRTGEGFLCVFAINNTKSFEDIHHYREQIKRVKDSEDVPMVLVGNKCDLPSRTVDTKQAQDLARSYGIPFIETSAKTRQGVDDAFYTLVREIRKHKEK
KRAS G12C, sequence (P62937 whole entry): as the sequence (P62937 whole entry) above
In short: as §1

[12] = target: KRAS WT (Homo sapiens (Human), UniProt P01116+P62937); test: as above; type: biochemical; details: read-out: KRAS WT FRET data IC50
KRAS WT, sequence (P01116 other isoform, or with tags, fused parts or gaps): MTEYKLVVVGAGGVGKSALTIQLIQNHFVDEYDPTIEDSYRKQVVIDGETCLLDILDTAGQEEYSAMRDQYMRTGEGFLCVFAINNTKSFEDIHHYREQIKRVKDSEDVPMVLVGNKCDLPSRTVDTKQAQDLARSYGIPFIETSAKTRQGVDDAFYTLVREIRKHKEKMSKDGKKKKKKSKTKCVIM
KRAS WT, sequence (P62937 whole entry): as the sequence (P62937 whole entry) above
In short: as §1

[13] = tested on: Capan-1 cells (K-Ras G12V); test: CellTiter-Glo cell viability, Capan-1; type: cell-based, human; details: Homo sapiens, CAPAN-1, 120 h, read-out: Capan-1 Cell Viability IC50
In short: (§3)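 Cells seeded, compound dispensed straight into wells, 5-day exposure. Plates brought to room temperature ~30 min, CellTiter-Glo luminescence measured. Normalized to DMSO (%), 4-parameter logistic fit.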

[14] = tested on: K-Ras G12C (NCI-H358 cells); test: Potency assay: pERK in NCI-H358 cells; type: cell-based, human; details: Homo sapiens, read-out: pERK EC50 (H358 KRAS G12C)
In short: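 Cells plated the day before were exposed for 4 h at 37° C, 5% CO2 to a 10-point, 3-fold DMSO dilution series (10 mM top stock), in duplicate. Phospho-ERK was read by AlphaLISA SureFire Ultra or by In-Cell Western with DRAQ5 DNA stain, and IC50 came from a 4-parameter sigmoidal fit.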

[15] = tested on: NCI-H358 cells (K-Ras G12C); test: CellTiter-Glo cell viability, NCI-H358; type: cell-based, human; details: Homo sapiens, NCI-H358, 120 h, read-out: H358 Cell Viability IC50
In short: as §3

[16] = ASPC1, AsPC-1 KRAS G12D, read-out: pERK EC50

Row | SMILES | EC50 [1, 16] | IC50 [2] | IC50 [3] | IC50 [4] | IC50 [5] | IC50 [6] | IC50 [7] | IC50 [8] | IC50 [9] | IC50 [10] | IC50 [11] | IC50 [12] | IC50 ([13]; K-Ras G12V, 5-day treatment) | EC50 ([14]; NCI-H358 cells, 4 hours) | IC50 ([15]; K-Ras G12C, 5-day treatment) | other results
1 | CCn1c(-c2cccnc2[C@H](C)OC)c2c3cc(ccc31)-c1cc(O)cc(c1)C[C@H](NC(=O)[C@H](C(C)C)N(C)C(=O)N1CCN(C(=O)[C@@H]3CN3)CC1)C(=O)N1CCC[C@H](N1)C(=O)OCC(C)(C)C2 (atropisomer, axis not shown) [Example 197] | < 5000 nM | – | – | – | – | – | – | – | – | – | – | – | – | – | – | –
2 | CCn1c(-c2cccnc2[C@H](C)OC)c2c3cc(ccc31)-c1csc(n1)C[C@H](NC(=O)[C@H](C(C)C)N(C)C(=O)N1C3COCC1C3)C(=O)N1CCC[C@H](N1)C(=O)OCC(C)(C)C2 [Compound A540] | – | 100 to 1000 nM | 100 to 1000 nM | 10 to 100 nM | 1000 to 10000 nM | 10 to 100 nM | 100 to 1000 nM | 100 to 1000 nM | 100 to 1000 nM | 100 to 1000 nM | 10 to 100 nM | 100 to 1000 nM | – | – | – | IC50 [13]: 10 to 100 nM; EC50 ([14]; NCI-H358, 4 h): < 5000 nM; IC50 [15]: 10 to 100 nM
3 | CCn1c(-c2cccnc2[C@H](C)OC)c2c3cc(ccc31)-c1csc(n1)C[C@H](NC(=O)[C@H](C(C)C)N(C)C(=O)N1C[C@H](N)[C@@H](O)C1)C(=O)N1CCC[C@H](N1)C(=O)OCC(C)(C)C2 [Compound A581] | – | 100 to 1000 nM | 100 to 1000 nM | 10 to 100 nM | 100 to 1000 nM | 10 to 100 nM | 100 to 1000 nM | 100 to 1000 nM | 100 to 1000 nM | 100 to 1000 nM | 10 to 100 nM | 100 to 1000 nM | 1000 to 10000 nM | < 5000 nM | 100 to 1000 nM | –
4 | CCn1c(-c2cccnc2[C@H](C)OC)c2c3cc(ccc31)-c1csc(n1)C[C@H](NC(=O)[C@H](C(C)C)N(C)C(=O)N1CCO[C@H](c3ccccc3)C1)C(=O)N1CCC[C@H](N1)C(=O)OCC(C)(C)C2 [Compound A582] | – | 100 to 1000 nM | 100 to 1000 nM | 10 to 100 nM | 100 to 1000 nM | 10 to 100 nM | 100 to 1000 nM | 100 to 1000 nM | 100 to 1000 nM | 100 to 1000 nM | 10 to 100 nM | 100 to 1000 nM | 100 to 1000 nM | < 5000 nM | 10 to 100 nM | –
5 | CCn1c(-c2cccnc2[C@H](C)OC)c2c3cc(ccc31)-c1csc(n1)C[C@H](NC(=O)[C@H](C(C)C)N(C)C(=O)N1CCO[C@@H](c3ccccc3)C1)C(=O)N1CCC[C@H](N1)C(=O)OCC(C)(C)C2 [Compound A600] | – | 100 to 1000 nM | 100 to 1000 nM | 10 to 100 nM | 100 to 1000 nM | 10 to 100 nM | 100 to 1000 nM | 10 to 100 nM | 100 to 1000 nM | 100 to 1000 nM | 10 to 100 nM | 10 to 100 nM | 100 to 1000 nM | < 5000 nM | 100 to 1000 nM | –
6 | CCn1c(-c2cccnc2[C@H](C)OC)c2c3cc(ccc31)-c1cc(O)cc(c1)C[C@H](NC(=O)[C@H](C(C)C)N(C)C(=O)CN(C)C(=O)[C@H]1CN1)C(=O)N1CCC[C@H](N1)C(=O)OCC(C)(C)C2 [Example 42A] | – | – | – | – | – | – | – | – | – | – | – | – | – | – | – | EC50 ([1]; ASPC1, read-out: pERK EC50): < 5000 nM
7 | CCn1c(-c2cccnc2[C@H](C)OC)c2c3cc(ccc31)-c1cc(O)cc(c1)C[C@H](NC(=O)[C@H](C(C)C)N(C)C(=O)c1ccc([C@@H]3CN3)cc1)C(=O)N1CCC[C@H](N1)C(=O)OCC(C)(C)C2 [Example 131] | < 5000 nM | – | – | – | – | – | – | – | – | – | – | – | – | – | – | –
8 | CCn1c(-c2cccnc2[C@H](C)OC)c2c3cc(ccc31)-c1cc(O)cc(c1)C[C@H](NC(=O)[C@H](C(C)C)N(C)C(=O)N1CCN(C(=O)[C@H]3CN3)CC1)C(=O)N1CCC[C@H](N1)C(=O)OCC(C)(C)C2 [Example 177, 4-((R)-aziridine-2-carbonyl)-N-((2S)-1-(((6^3S,4S)-1^1-ethyl-2^5-hydroxy-1^2-(2-((S)-1-methoxyethyl)pyridin-3-yl)-10,10-dimethyl-5,7-dioxo-6^1,6^2,6^3,6^4,6^5,6^6-hexahydro-1^1H-8-oxa-1 (5,3)-indola-6 (1,3)-pyridazina-2 (1,3)-benzenacycloundecaphane-4-yl)amino)-3-methyl-1-oxobutan-2-yl)-N-methylpiperazine-1-carboxamide] | < 5000 nM | – | – | – | – | – | – | – | – | – | – | – | – | – | – | –
9 | CCn1c(-c2cccnc2[C@H](C)OC)c2c3cc(ccc31)-c1cc(O)cc(c1)C[C@H](NC(=O)[C@H](C1CCCC1)N1CC[C@@]3(CCN(C(=O)[C@@H]4N[C@@H]4C4CC4)C3)C1=O)C(=O)N1CCC[C@H](N1)C(=O)OCC(C)(C)C2 [Example 215] | < 5000 nM | – | – | – | – | – | – | – | – | – | – | – | – | – | – | –
10 | CCn1c(-c2cccnc2[C@H](C)OC)c2c3cc(ccc31)-c1csc(n1)C[C@H](NC(=O)[C@H](C1CCCC1)N1CC[C@]3(CCN(C(=O)[C@@H]4N[C@@H]4C4CC4)C3)C1=O)C(=O)N1CCC[C@H](N1)C(=O)OCC(C)(C)C2 [Example 234] | < 5000 nM | – | – | – | – | – | – | – | – | – | – | – | – | – | – | –
